Results taken from patent US20220213047A1, “CARBONIC ANHYDRASE INHIBITORS FOR TREATMENT OF NEISSERIA GONORRHOEAE INFECTION” (Purdue Research Foundation, priority 2021, published 2022).
Converted amounts (≈) assume the structure as drawn.

Legend:
[1] = system: N. gonorrhoeae; assay: MIC by agar dilution on a larger panel of N. gonorrhoeae strains; type: cell-based, Neisseria gonorrhoeae; conditions: Neisseria gonorrhoeae
Description: (§1) These tests were performed in normal culture conditions with standard CO2 levels and in CO2 (5% in incubator) conditions.

[2] = system: N. gonorrhoeae; assay: MIC against N. gonorrhoeae clinical isolates, normal and CO2 conditions; type: cell-based; conditions: Neisseria gonorrhoeae
Description: as §1

[3] = strain panel of Table 9, CO2 (5% CO2 containing air)

NS(=O)(=O)c1cc(Cl)c(Cl)c(S(N)(=O)=O)c1 [Dichlorphenamide]
MIC ([1]; N. gonorrhoeae 165, CO2 (5% CO2 containing air), read-out: MIC): > 128 µg/mL | MIC ([1]; N. gonorrhoeae 165, Non CO2 (ambient air), read-out: MIC): 2 µg/mL (≈ 6.55 µM) | MIC ([1]; N. gonorrhoeae 166, CO2 (5% CO2 containing air), read-out: MIC): > 128 µg/mL | MIC ([1]; N. gonorrhoeae 166, Non CO2 (ambient air), read-out: MIC): 8 µg/mL (≈ 26.2 µM) | MIC ([1]; N. gonorrhoeae 167, CO2 (5% CO2 containing air), read-out: MIC): > 128 µg/mL | MIC ([1]; N. gonorrhoeae 167, Non CO2 (ambient air), read-out: MIC): 4 µg/mL (≈ 13.1 µM) | MIC ([1]; N. gonorrhoeae 170, CO2 (5% CO2 containing air), read-out: MIC): > 128 µg/mL | MIC ([1]; N. gonorrhoeae 170, Non CO2 (ambient air), read-out: MIC): 64 µg/mL (≈ 210 µM) | MIC ([1]; N. gonorrhoeae 171, CO2 (5% CO2 containing air), read-out: MIC): > 128 µg/mL | MIC ([1]; N. gonorrhoeae 171, Non CO2 (ambient air), read-out: MIC): 1 µg/mL (≈ 3.28 µM) | MIC ([1]; N. gonorrhoeae 173, CO2 (5% CO2 containing air), read-out: MIC): > 128 µg/mL | MIC ([1]; N. gonorrhoeae 173, Non CO2 (ambient air), read-out: MIC): 2 µg/mL (≈ 6.55 µM) | MIC ([1]; N. gonorrhoeae 174, CO2 (5% CO2 containing air), read-out: MIC): > 128 µg/mL | MIC ([1]; N. gonorrhoeae 174, Non CO2 (ambient air), read-out: MIC): 2 µg/mL (≈ 6.55 µM) | MIC ([1]; N. gonorrhoeae 175, CO2 (5% CO2 containing air), read-out: MIC): > 128 µg/mL | MIC ([1]; N. gonorrhoeae 175, Non CO2 (ambient air), read-out: MIC): 16 µg/mL (≈ 52.4 µM) | MIC ([1]; N. gonorrhoeae 176, CO2 (5% CO2 containing air), read-out: MIC): > 128 µg/mL | MIC ([1]; N. gonorrhoeae 176, Non CO2 (ambient air), read-out: MIC): 4 µg/mL (≈ 13.1 µM) | MIC ([1]; N. gonorrhoeae 177, CO2 (5% CO2 containing air), read-out: MIC): 128 µg/mL (≈ 419 µM) | MIC ([1]; N. gonorrhoeae 177, Non CO2 (ambient air), read-out: MIC): 4 µg/mL (≈ 13.1 µM) | MIC ([1]; N. gonorrhoeae 178, CO2 (5% CO2 containing air), read-out: MIC): > 128 µg/mL | MIC ([1]; N. gonorrhoeae 178, Non CO2 (ambient air), read-out: MIC): 1 µg/mL (≈ 3.28 µM) | MIC ([1]; N. gonorrhoeae 179, CO2 (5% CO2 containing air), read-out: MIC): > 128 µg/mL | MIC ([1]; N. gonorrhoeae 179, Non CO2 (ambient air), read-out: MIC): 8 µg/mL (≈ 26.2 µM) | MIC ([1]; N. gonorrhoeae 180, CO2 (5% CO2 containing air), read-out: MIC): > 128 µg/mL | MIC ([1]; N. gonorrhoeae 180, Non CO2 (ambient air), read-out: MIC): 8 µg/mL (≈ 26.2 µM) | MIC ([1]; N. gonorrhoeae 181, CO2 (5% CO2 containing air), read-out: MIC): 128 µg/mL (≈ 419 µM) | MIC ([1]; N. gonorrhoeae 181, Non CO2 (ambient air), read-out: MIC): 8 µg/mL (≈ 26.2 µM) | MIC ([1]; N. gonorrhoeae 182, CO2 (5% CO2 containing air), read-out: MIC): > 128 µg/mL | MIC ([1]; N. gonorrhoeae 182, Non CO2 (ambient air), read-out: MIC): 16 µg/mL (≈ 52.4 µM) | MIC ([1]; N. gonorrhoeae 183, CO2 (5% CO2 containing air), read-out: MIC): 128 µg/mL (≈ 419 µM) | MIC ([1]; N. gonorrhoeae 183, Non CO2 (ambient air), read-out: MIC): 1 µg/mL (≈ 3.28 µM) | MIC ([1]; N. gonorrhoeae 184, CO2 (5% CO2 containing air), read-out: MIC): > 128 µg/mL | MIC ([1]; N. gonorrhoeae 184, Non CO2 (ambient air), read-out: MIC): 4 µg/mL (≈ 13.1 µM) | MIC ([1]; N. gonorrhoeae 185, CO2 (5% CO2 containing air), read-out: MIC): > 128 µg/mL | MIC ([1]; N. gonorrhoeae 185, Non CO2 (ambient air), read-out: MIC): 8 µg/mL (≈ 26.2 µM) | MIC ([1]; N. gonorrhoeae 186, CO2 (5% CO2 containing air), read-out: MIC): > 128 µg/mL | MIC ([1]; N. gonorrhoeae 186, Non CO2 (ambient air), read-out: MIC): 8 µg/mL (≈ 26.2 µM) | MIC ([1]; N. gonorrhoeae 188, CO2 (5% CO2 containing air), read-out: MIC): > 128 µg/mL | MIC ([1]; N. gonorrhoeae 188, Non CO2 (ambient air), read-out: MIC): 1 µg/mL (≈ 3.28 µM) | MIC ([1]; N. gonorrhoeae 191, CO2 (5% CO2 containing air), read-out: MIC): > 128 µg/mL | MIC ([1]; N. gonorrhoeae 191, Non CO2 (ambient air), read-out: MIC): 4 µg/mL (≈ 13.1 µM) | MIC ([1]; N. gonorrhoeae 193, CO2 (5% CO2 containing air), read-out: MIC): 128 µg/mL (≈ 419 µM) | MIC ([1]; N. gonorrhoeae 193, Non CO2 (ambient air), read-out: MIC): 4 µg/mL (≈ 13.1 µM) | MIC ([1]; N. gonorrhoeae 194, CO2 (5% CO2 containing air), read-out: MIC): 128 µg/mL (≈ 419 µM) | MIC ([1]; N. gonorrhoeae 194, Non CO2 (ambient air), read-out: MIC): 4 µg/mL (≈ 13.1 µM) | MIC ([1]; N. gonorrhoeae 196, CO2 (5% CO2 containing air), read-out: MIC): > 128 µg/mL | MIC ([1]; N. gonorrhoeae 196, Non CO2 (ambient air), read-out: MIC): 1 µg/mL (≈ 3.28 µM) | MIC ([1]; N. gonorrhoeae 197, CO2 (5% CO2 containing air), read-out: MIC): > 128 µg/mL | MIC ([1]; N. gonorrhoeae 197, Non CO2 (ambient air), read-out: MIC): 4 µg/mL (≈ 13.1 µM) | MIC ([1]; N. gonorrhoeae 198, CO2 (5% CO2 containing air), read-out: MIC): > 128 µg/mL | MIC ([1]; N. gonorrhoeae 198, Non CO2 (ambient air), read-out: MIC): 1 µg/mL (≈ 3.28 µM) | MIC ([1]; N. gonorrhoeae 200, CO2 (5% CO2 containing air), read-out: MIC): > 128 µg/mL | MIC ([1]; N. gonorrhoeae 200, Non CO2 (ambient air), read-out: MIC): 32 µg/mL (≈ 105 µM) | MIC ([1]; N. gonorrhoeae 202, CO2 (5% CO2 containing air), read-out: MIC): > 128 µg/mL | MIC ([1]; N. gonorrhoeae 202, Non CO2 (ambient air), read-out: MIC): 16 µg/mL (≈ 52.4 µM) | MIC ([1]; N. gonorrhoeae 203, CO2 (5% CO2 containing air), read-out: MIC): > 128 µg/mL | MIC ([1]; N. gonorrhoeae 203, Non CO2 (ambient air), read-out: MIC): 1 µg/mL (≈ 3.28 µM) | MIC ([1]; N. gonorrhoeae 205, CO2 (5% CO2 containing air), read-out: MIC): > 128 µg/mL | MIC ([1]; N. gonorrhoeae 205, Non CO2 (ambient air), read-out: MIC): 16 µg/mL (≈ 52.4 µM) | MIC ([1]; N. gonorrhoeae 206, CO2 (5% CO2 containing air), read-out: MIC): > 128 µg/mL | MIC ([1]; N. gonorrhoeae 206, Non CO2 (ambient air), read-out: MIC): 4 µg/mL (≈ 13.1 µM) | MIC ([1]; N. gonorrhoeae 207, CO2 (5% CO2 containing air), read-out: MIC): > 128 µg/mL | MIC ([1]; N. gonorrhoeae 207, Non CO2 (ambient air), read-out: MIC): 4 µg/mL (≈ 13.1 µM) | MIC ([1]; N. gonorrhoeae 208, CO2 (5% CO2 containing air), read-out: MIC): > 128 µg/mL | MIC ([1]; N. gonorrhoeae 208, Non CO2 (ambient air), read-out: MIC): 4 µg/mL (≈ 13.1 µM) | MIC ([1]; N. gonorrhoeae 209, CO2 (5% CO2 containing air), read-out: MIC): > 128 µg/mL | MIC ([1]; N. gonorrhoeae 209, Non CO2 (ambient air), read-out: MIC): 1 µg/mL (≈ 3.28 µM) | MIC ([1]; N. gonorrhoeae 210, CO2 (5% CO2 containing air), read-out: MIC): > 128 µg/mL | MIC ([1]; N. gonorrhoeae 210, Non CO2 (ambient air), read-out: MIC): 4 µg/mL (≈ 13.1 µM) | MIC ([1]; N. gonorrhoeae 211, CO2 (5% CO2 containing air), read-out: MIC): > 64 µg/mL | MIC ([1]; N. gonorrhoeae 211, Non CO2 (ambient air), read-out: MIC): 1 µg/mL (≈ 3.28 µM) | MIC ([1]; N. gonorrhoeae 212, CO2 (5% CO2 containing air), read-out: MIC): > 128 µg/mL | MIC ([1]; N. gonorrhoeae 212, Non CO2 (ambient air), read-out: MIC): 32 µg/mL (≈ 105 µM) | MIC ([1]; N. gonorrhoeae 213, CO2 (5% CO2 containing air), read-out: MIC): > 128 µg/mL | MIC ([1]; N. gonorrhoeae 213, Non CO2 (ambient air), read-out: MIC): 16 µg/mL (≈ 52.4 µM) | MIC ([1]; N. gonorrhoeae 214, CO2 (5% CO2 containing air), read-out: MIC): > 128 µg/mL | MIC ([1]; N. gonorrhoeae 214, Non CO2 (ambient air), read-out: MIC): 1 µg/mL (≈ 3.28 µM) | MIC50 [1, 3]: > 128 µg/mL | MIC90 [1, 3]: > 128 µg/mL | MIC ([1]; strain panel of Table 9, CO2 (5% CO2 containing air), read-out: Modal MIC): > 128 µg/mL | MIC50 ([1]; strain panel of Table 9, Non CO2 (ambient air)): 4 µg/mL (≈ 13.1 µM) | MIC ([1]; strain panel of Table 9, Non CO2 (ambient air), read-out: Modal MIC): 4 µg/mL (≈ 13.1 µM) | MIC90 ([1]; strain panel of Table 9, Non CO2 (ambient air, standard CO2 conditions)): 16 µg/mL (≈ 52.4 µM) | MIC ([2]; N. gonorrhoeae 178, Non CO2 environment): 2 µg/mL (≈ 6.55 µM) | MIC ([2]; N. gonorrhoeae 178, normal growth environment (with CO2)): > 64 µg/mL | MIC ([2]; N. gonorrhoeae 181, Non CO2 environment): 8 µg/mL (≈ 26.2 µM) | MIC ([2]; N. gonorrhoeae 181, normal growth environment (with CO2)): > 64 µg/mL | MIC ([2]; N. gonorrhoeae 194, Non CO2 environment): 4 µg/mL (≈ 13.1 µM) | MIC ([2]; N. gonorrhoeae 194, normal growth environment (with CO2)): > 64 µg/mL
